Experimental data: US20110282028A1, “METHOD FOR IDENTIFYING INHIBITORS OF LIPOTEICHOIC ACID SYNTHASE” (UNIVERSITY OF NEWCASTLE UPON TYNE, priority 2008, published 2011)

Legend:
Assay type in all cases: cell-based, B. subtilis
wild-type (168) = assay: Sensitivity to cations, dilutions spotted on NA plates, wild-type; details: 0.05 mM MnSO4 added to nutrient agar (NA), 37° C.
Procedure: (§1) FIG. 3—Effect of metal ion concentration of viability of wild-type and ltaS mutants: A. Growth of wild-type (168) and ltaS mutant (strain 4286) at 37° C. in on NA plates without additives (left), containing 0.5 mM Mg^2+ (middle) or with addition of 0.05 mM Mn^2+ (right). B. Growth of ltaS mutant (strain 4283, left) and wild-type (strain 168, right) on minimal medium plates containing 10, 100 and 500 μM Mg^2+ as indicated.
(§2) Liquid cultures of B. subtilis strains were grown in Difco Antibiotic Medium 3 (PAB), CH medium (Nicholson & Setlow, 1990), or S-medium (Karamata & Gross, 1970) at 37° C. Nutrient agar (Oxoid) plates were used for growth on solid medium, Modified Salts Medium plates with defined Mg^2+ concentrations were prepared as described previously (Carballido-López et al., 2006). The given concentration of Mg^2+ was achieved by addition of MgSO4 to the medium. DNA manipulations and B. subtilis strains were transformed according to the method of Anagnostopoulos and Spizizen (1961) as modified by Jenkinson (1983). Selection for B. subtilis transformants was carried out on nutrient agar (Oxoid), supplemented with antibiotics, as required, with: kanamycin ([…]) chloramphenicol ([…]), erythromycin ([…] ml^−1), lincomycin ([…] ml^−1) and/or spectinomycin ([…]). […]

[1] = system: ltaS mutant (strain 4286); assay: Sensitivity to cations, dilutions spotted on NA plates, ltaS mutant; details: 37° C.
Procedure: as §1, §2

ltaS mutant [2] = assay: Zone of inhibition on solid medium, ltaS mutant compared with wild-type; details: data not shown
Excerpt: (§3) In the process of constructing the deletion strain, we noticed that the ltaS mutant was also hyper-sensitive to various antibiotics and lysozyme. […] In other experiments on solid medium the zone of inhibition of all antibiotics tested (kanamycin, ampicillin, vancomycin, penicillin, spectinomycin, erythromycin, lincomycin, carbenicillin) was wider for the ltaS mutant than for the wild-type (not shown). […] The general increase in sensitivity of the mutant to antibiotics and lysozyme is consistent with the notion that LTA also provides a protective layer that restricts the access of many bioactive agents to sensitive sites in the cell envelope.

ltaS mutant [3] = assay: Susceptibility of ltaS mutant to lysozyme; details: data not shown
Excerpt: as §3

| Compound | zone of inhibition for the ltaS mutant versus the wild-type (ltaS mutant [2]) | further results |
| --- | --- | --- |
| O=S(=O)([O-])[O-].[Mn+2] [MnSO4] |  | growth of the wild-type (wild-type (168)): unaffected; growth of the ltaS mutant ([1]; 0.05 mM MnSO4 added to nutrient agar (NA)): abolished growth |
| CN[C@H](CC(C)C)C(=O)N[C@H]1C(=O)N[C@@H](CC(N)=O)C(=O)N[C@H]2C(=O)N[C@H]3C(=O)N[C@H](C(=O)N[C@H](C(=O)O)c4cc(O)cc(O)c4-c4cc3ccc4O)[C@H](O)c3ccc(c(Cl)c3)Oc3cc2cc(c3O[C@@H]2O[C@H](CO)[C@@H](O)[C@H](O)[C@H]2O[C@H]2C[C@](C)(N)[C@H](O)[C@H](C)O2)Oc2ccc(cc2Cl)[C@H]1O [vancomycin] | wider |  |
| CN[C@@H]1[C@H](O)[C@H](NC)[C@H]2O[C@@]3(O)C(=O)C[C@@H](C)O[C@H]3O[C@@H]2[C@H]1O [spectinomycin] | wider |  |
| penicillin | wider |  |
| CC1(C)S[C@@H]2[C@H](NC(=O)[C@H](N)c3ccccc3)C(=O)N2[C@H]1C(=O)O [ampicillin] | wider |  |
| CC[C@H]1OC(=O)[C@H](C)[C@@H](O[C@H]2C[C@@](C)(OC)[C@@H](O)[C@H](C)O2)[C@H](C)[C@@H](O[C@@H]2O[C@H](C)C[C@H](N(C)C)[C@H]2O)[C@](C)(O)C[C@@H](C)C(=O)[C@H](C)[C@@H](O)[C@]1(C)O [erythromycin] | wider |  |
| CC1(C)S[C@@H]2[C@H](NC(=O)C(C(=O)O)c3ccccc3)C(=O)N2[C@H]1C(=O)O (some centres unmarked) [carbenicillin] | wider |  |
| O=S(=O)([O-])[O-].[Mg+2] [Mg^2+, MgSO4] |  | growth of the ltaS mutant ([1]; 0.5 mM Mg^2+ added to nutrient agar (NA)): no effect |
| lysozyme |  | susceptibility of the ltaS mutant to lysozyme (ltaS mutant [3]): increased susceptibility |
| CCC[C@@H]1C[C@@H](C(=O)N[C@@H]([C@H]2O[C@H](SC)[C@H](O)[C@@H](O)[C@H]2O)[C@@H](C)O)N(C)C1 [lincomycin] | wider |  |
